Assay results reported in patent US5179109A (priority 1988, dated 1993).
“Also recorded” adds a separate entry of the source. Read-outs that look alike come from different tables or passages of the source.

Experiments:
Swiss mice = assay: Simple rotary bar test (dose at which 50% of the animals drop); type: in vivo; details: for ED50: Mus musculus, sc
Method: In this example, the properties of compounds 1 to 5 and 8 to 11 are tested on Swiss mice.
Different doses of the compounds to be tested are administered subcutaneously to the mice and the latter are then placed in batches of 10 on a rotary bar, being separated from one another by separating disks. This bar is made from scraped wood, has a diameter of 3 cm and is moved horizontally with a uniform circular movement about its axis at a speed of 10 rpm.
Determination takes place of the ED50, which is the dose at which 50% of the animals drop, the dose being expressed in mg/kg.

[1] = tested on: synaptosomal striatal (^3 H)DA capture; assay: Inhibition test of the synaptosomal striatal sample (capture) of (^3 H)DA; type: biochemical, Wistar rats; details: for IC50: rat striatal synaptosomes, 5 nM (^3 H)DA, 5 min at 30° C., pH 7.4, read-out: ^3 HDA IC50; for ^3 HDA/^3 H-TCP: ratio of IC50
Method: This test is carried out according to the method used by Vignon and Lazdunski operating in the following way. Wistar rats weighing 200 to 250 g are killed by cervical dislocation. Their brains are rapidly removed and the striae dissected on ice. The striae are then homogenized with a Teflon glass Potter homogenizer in 50 volumes of tris HCl 10 mM buffer containing 0.32M of sucrose at pH 7.4 and they are centrifuged at 1000 g for 10 min. The supernatants are further centrifuged at 10000 g for 20 min. The resulting deposits P2 containing the crude synaptosomes are used without supplementary purification.
The synaptosomes are balanced with the compound to be tested for 30 min at 30° C. in the Ringer medium (mM: 140 NaCl, 5 KCl, 2.6 CaCl2, 1.3 MgSO4, 10 tris-HCl, pH=7.4)+200 μM of pargyline. This is followed by the addition of (^3 H)DA labelled dopamine at a final concentration of 5 nM for 5 min at 30° C. and sampling is interrupted by filtration of the incubate (150 μl) on GF/B filters. The non-specific sample is measured at 4° C. in parallel incubations and is deducted from the total sample at 30° C. The IC50 is the compound concentration preventing 50% of the specific capture compared with the control in the absence of an inhibitor.

[2] = molecular target: cerebral cholinergic muscarinic receptor; type: binding, rat; details: for IC50: rat brain homogenate, read-out: ^3 HQNB IC50; for ^3 HQNB/^3 HTCP: ratio of IC50
receptor of the opiates = molecular target: T1, receptor of the opiates (Rattus norvegicus, UniProt P33535); assay: Competition test with ^3 H-DHM for the receptor of the opiates; type: binding
T1 construct: variable concentrations of the tested compound and a rat brain homogenate; from tissue; host or cells: rat brain homogenate
T1 sequence (P33535 whole entry): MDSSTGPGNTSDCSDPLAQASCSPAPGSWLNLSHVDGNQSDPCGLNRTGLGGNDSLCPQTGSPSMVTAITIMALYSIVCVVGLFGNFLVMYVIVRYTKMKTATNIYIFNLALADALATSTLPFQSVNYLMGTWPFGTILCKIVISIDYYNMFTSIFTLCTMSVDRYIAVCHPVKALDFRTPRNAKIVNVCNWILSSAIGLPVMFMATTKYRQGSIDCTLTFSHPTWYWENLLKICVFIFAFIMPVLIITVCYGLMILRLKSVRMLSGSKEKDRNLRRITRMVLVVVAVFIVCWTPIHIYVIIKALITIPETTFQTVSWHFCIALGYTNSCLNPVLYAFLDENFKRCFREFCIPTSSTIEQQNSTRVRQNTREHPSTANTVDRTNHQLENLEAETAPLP
Method: In this test, a fixed concentration of ^3 H-DHM labelled morphine was incubated in the presence of variable concentrations of the tested compound and a rat brain homogenate. The concentration of the compound preventing the fixing of 50% of ^3 H-DHM (IC50) is a measure of the affinity of the compound for the receptor of the opiates. The latter also gives the results obtained with PCP and TCP, as well as the ratios H^3 DA/^3 H-TCP, ^3 HQNB/^3 H-TCP and ^3 HDHM/^3 HTCP obtained with the different tested compounds.

[3] = tested on: cortical and hippocampal neurons; assay: In vitro neuron culture survival after 2 months, count of neurons (Example 23); type: cell-based, rat; details: for number of neurons which survived after 2 months culturing: single dose at start of third week, TCP 2.5 and 20, compound 9 and MK801 2.5 and 5 μmole/l, control 50 neurons/mm^2
Method: This example also illustrates the effect of the arylcyclohexylamines according to the invention on the in vitro neuron culture survival. As in example 21, cortical and hippocampal neuron cultures are prepared. At the start of the third culturing week, the cells are treated with a single dose of the compound to be tested and culturing is continued for two months. At the end of this period, the cells which were fixed and dyed to reveal the specific enolase of the neurons are subject to counts in order to determine the quantity of cells per surface unit.
The results obtained are given in FIG. 1, which is a histogram indicating the number of cells/mm^2 which survived after 2 months culturing.
The results are given for the control, i.e. for untreated cultures, cultures treated with 2.5 and 20 μmole/l of TCP, cultures treated by compound no. 9 at concentrations of 2.5 and 5 μmole/l and cultures treated by compound MK801 at concentrations of 2.5 and 5 μmole/l. Compound MK801, which is known to have a neuroprotection activity, is (+)-methyl-5-dihydro-10,11(5H)dibenzo(A,D) cyclohepteneimine-5,10 of formula: [drawing 38] From FIG. 1 it can be seen that the control cultures, after surviving for 2 months, on average contain 50 neurons/mm^2. The treated cultures, no matter what the compound and dose used, contain more than 500 neurons/mm^2.

Purkinje cells = assay: Cerebral aging in mice, histology of the cerebellum; type: in vivo; details: cerebellum and hippocampus, compared with TCP
Method: This example illustrates the effect of arylcyclohexylamines on cerebral aging. No matter what the cause of the cerebral aging (vascular or degenerative), it leads to a neuronal loss at the cerebral cortex, the hippocampas and to a lesser extent the cerebellum. This cellular loss can be quantified by simple histological methods and evaluated on a larger scale by means of semi-automatic image analysis methods.
In this example 6 mice aged 23 months by intraperitonealy injecting 3 of them with 5 mg/kg of TCP in the physiological solute at the 23rd, 24th and 25th months and 3 other mice were intraperitonealy injected with the physiological solute only. At the 26th month, all the mice were sacrificed by intracardial perfusion of a 5% glutaraldehyde solution, the brains were cut up with the vibratone and the sections dyed by the NISSL method.
The results obtained are given in FIGS. 2 to 5, which are sections of the brain and the cerebellum of the treated mice and the untreated control mice.

site of PCP = assay: Affinity for the PCP site, competition with (^3 H)PCP on rat brain homogenates; type: binding; details: rat brain homogenate, pH 7.7, 25° C., 1 nmole tritiated ligand
site of TCP = assay: Affinity for the TCP site, competition with (^3 H)TCP on rat brain homogenates; type: binding; details: rat brain homogenate, pH 7.7, 25° C., 1 nmole tritiated ligand; read-out: ^3 HTCP IC50
cortical cells = assay: Protection of cortical cells in vitro against acute glutamate damage; type: cell-based, rat; parameters: key: ++: severe damage; +: partial protection; -: no damage; details: 24 h after 5 min exposure to glutamate
Method: (§1) This example illustrates the effect of the arylcyclohexylamines according to the invention on in vitro cultures of rat brain cells as a neuroprotector against acute attacks caused by the presence of glutamate.
(§2) Cortical and hippocampal neuron cultures were prepared from the fetuses of rats aged from 17 to 18 days. The hemispheres or hippocampi are dissected and immersed in a buffer containing EDTA (Versene) for 10 min. The tissues are then mechanically dissociated in a saline PUCK solution free from calcium and magnesium and centrifuged at 70 g for 10 min. The centrifuging deposit is resuspended in a culture medium constituted by 60% of the minimum essential Eagle medium (MEM), 25% of a saline Hank solution, 5% of human serum, 5% of calf foetus serum, 5% of embryo extract and which are complemented with 6% glucose. The cells are introduced at a density of 10^6 cells per ml into 24 Wells previously coated with polylysine D. The cultures are allowed to grow for 3 weeks, […] of the culture medium being renewed every 3 days. The test is carried out in the following way. Glutamate dissolved in 10 μl of MEM is added to the medium in order to obtain a final glutamate concentration of 5·10^-4 M. After exposure for 5 min, the medium is changed. For studying the antagonist derivatives of the glutamate, to the culture medium is added the compound to be test in 10 μl of MEM in order to obtain a final concentration of compound of 200, 20 or 0.2·10^-6 M. Five minutes later, glutamate is added to the medium and then the medium is replenished after exposure for 5 minutes. The protected and unprotected cultures are then examined and photographed at intervals between 30 min and 24 h.

hippocampal cells = assay: Protection of hippocampal cells in vitro against acute glutamate damage; type: cell-based, rat; parameters: key: ++: severe damage; +: partial protection; -: no damage; details: 24 h after 5 min exposure to glutamate
Method: as §1, §2

[4] = tested on: cortical and hippocampal neurons; assay: Protection of cortical and hippocampal neuron cultures against glutamate; type: cell-based, rat
Method: as §1, §2

[5] = Subcutaneous LD50 in the rat; details: in vivo, sc
[6] = Swiss mice, subcutaneous, dose at which 50% of the animals drop, read-out: ED50

C[C@@H]1CCCC[C@]1(c1cccs1)N1CCCCC1 (relative stereo) [compound 9, c-methyl-2-r-(piperidino-1)-1 (thienyl-2)-1 cyclohexane]
ED50 (Swiss mice; [6]): 3.5 mg/kg
IC50 [1]: 7.9 µM
^3 HDA/^3 H-TCP [1]: 415
IC50 [2]: 12 µM
IC50 (receptor of the opiates; rat brain homogenate, read-out: ^3 HDHM IC50): 5 µM
neuron survival, comparison in words ([3]; compound 9 at 5 μmole/liter, 2 months culturing): comparable result to that of TCP at 20 μmole/l and that of MK801 at 5 μmole/l; also recorded: effectiveness equal to that of the reference compound MK801
number of neurons which survived after 2 months culturing [3]: more than 500 neurons/mm^2
cerebral aging experiment repeated in place of TCP (Purkinje cells): equivalent results were obtained

O[C@H]1CCCC[C@]1(c1ccccc1)N1CCCCC1 (relative stereo) [compound 11, t-hydroxy-2 phenyl-1-r-(piperidino-1)-1 cyclohexane]
ED50 (Swiss mice; [6]): 17 mg/kg
IC50 (site of PCP): 1.17 µM
IC50 [2]: 125 µM
^3 HQNB/^3 HTCP [2]: 106.8

C1=CCN(C2(c3cccs3)CCCCC2)CC1 [Compound No. 2, ((tetrahydro-1,2,5,6pyridino)-1)-1 (thienyl-2)-1 cyclohexane]
ED50 (Swiss mice; [6]): 4 mg/kg
IC50 (site of PCP): 0.017 µM
IC50 (site of TCP): 0.026 µM
IC50 [1]: 4.7 µM
IC50 [2]: 25 µM
^3 HQNB/^3 HTCP [2]: 961
Treatment of cortical cells, damage (cortical cells; 0.2 μM): ++
Treatment of cortical cells, damage (cortical cells; 2 μM): +
Treatment of cortical cells, damage (cortical cells; 20 μM): -
Treatment of cortical cells, damage (cortical cells; 200 μM): -
Treatment of hippocampal cells, damage (hippocampal cells; 0.2 μM): ++
Treatment of hippocampal cells, damage (hippocampal cells; 2 μM): +
Treatment of hippocampal cells, damage (hippocampal cells; 20 μM): -
Treatment of hippocampal cells, damage (hippocampal cells; 200 μM): -
protection of the cultures against glutamate ([4]; 0.2 μmole, 24 h after 5 min exposure to glutamate): no protection
protection of the cultures against glutamate ([4]; 2 μmole, 24 h after 5 min exposure to glutamate): only a limited protection
damage of the cultures by glutamate ([4]; 20 μmole, 24 h after 5 min exposure to glutamate): only very slightly damaged
appearance of hippocampal and cortical cell cultures ([4]; after 24 h, glutamate exposure): appear healthy in the same way as the control cells
acute swelling ([4]; glutamate exposure): less intense
necrosis ([4]; glutamate exposure): completely blocked

C[C@]12N[C@H](Cc3ccccc31)c1ccccc12 [MK801, (+)-methyl-5-dihydro-10,11(5H)dibenzo(A,D) cyclohepteneimine-5,10, reference compound]
number of neurons which survived after 2 months culturing [3]: more than 500 neurons/mm^2

c1ccc(C2(N3CCCCC3)CCCCC2)cc1 [PCP, 1-(1-phenylcyclohexyl)-piperidine, reference compound]
ED50 (Swiss mice): 4 mg/kg
IC50 (site of PCP): 0.25 µM
IC50 (site of TCP): 0.2 µM
IC50 [1]: 0.5 µM
^3 HDA/^3 H-TCP [1]: 2.5
IC50 [2]: 30 µM
^3 HQNB/^3 HTCP [2]: 150
IC50 (receptor of the opiates): 26 µM
^3 HDHM/^3 HTCP (receptor of the opiates; ratio of IC50): 130

CC1CCN(C2(c3ccccc3)CCCCC2)CC1 [compound 1, ((methyl-4 piperidino)-1)-1 phenyl-1 cyclohexane]
ED50 (Swiss mice; [6]): 20 mg/kg
IC50 (site of PCP): 0.4 µM
IC50 [1]: 5 µM
^3 HDA/^3 H-TCP [1]: 125

OCC1CCCN(C2(c3cccs3)CCCCC2)C1 (stereo not shown) [compound 3, [(hydroxymethyl-3piperidino)-1]-1 (thienyl-2)-1 cyclohexane]
ED50 (Swiss mice; [6]): 0.68 mg/kg
IC50 (site of PCP): 0.7 µM
IC50 [2]: 90 µM
^3 HQNB/^3 HTCP [2]: 128
LD50 [5]: > 60 mg/kg

C[C@H]1CC[C@@](c2cccs2)(N2CCCC(CO)C2)CC1 (stereo partly shown) [compound 5, r-(hydroxymethyl-3-piperidino)-1-c-methyl-4 (thienyl-2)-1 cyclohexane]
ED50 (Swiss mice; [6]): 8 mg/kg
IC50 (site of PCP): 0.38 µM
IC50 [2]: 110 µM
^3 HQNB/^3 HTCP [2]: 289

CC(=O)OCC1CCCN(C2(c3ccccc3)CCCCC2)C1 (stereo not shown) [compound 6, acetate of ((hydroxymethyl-3-piperidino)-1)-1 phenyl-1 cyclohexane]
IC50 (site of PCP): 1.1 µM
IC50 [2]: 140 µM
^3 HQNB/^3 HTCP [2]: 127

C[C@H]1CC[C@@](c2cccc(F)c2)(N2CCCC(CO)C2)CC1 (stereo partly shown) [compound 7, ((fluoro-3 phenyl)-1)-r-((hydroxymethyl-3 piperidino)-1)-1-c-methyl-4 cyclohexane]
IC50 (site of PCP): 4.5 µM
IC50 [2]: 760 µM
^3 HQNB/^3 HTCP [2]: 168

ClCC1CCCN(C2(c3cccs3)CCCCC2)C1 (stereo not shown) [compound 8, [(chloromethyl-3 piperidino)-1]-1 (thienyl-2)-1 cyclohexane]
ED50 (Swiss mice; [6]): 150 mg/kg
rotary bar activity, in words (Swiss mice; Swiss mice, subcutaneous): low activity compared with the other compounds
IC50 (site of PCP): 0.56 µM
IC50 [2]: 870 µM
^3 HQNB/^3 HTCP [2]: 1553

C[C@H]1CC[C@](c2cccs2)(N2CCCCC2)CC1 [compound 10]
ED50 (Swiss mice; [6]): 19 mg/kg
IC50 (site of PCP): 0.14 µM
IC50 (site of TCP): 0.034 µM
IC50 [1]: 3.6 µM
^3 HDA/^3 H-TCP [1]: 105
IC50 [2]: 29.3 µM
^3 HQNB/^3 HTCP [2]: 862
